PMC5596366, “Cytotoxicity and genotoxicity of stilbene derivatives in CHO-K1 and HepG2 cell lines” (Genetics and Molecular Biology, 2017)
“Also recorded” adds a separate entry of the source.

What was measured:
[1] = tested on: colon and intestinal tumors; design: method as in Schneider et al., 2001; details: Min mice; ref Schneider et al., 2001; cited from earlier work
CHO-K1 cells [2] = test: Cytokinesis-block micronucleus assay (CBMN); type: cell-based; details: for mean micronucleus (MN) frequency: 24 h
Description: (§1) CHO-K1 and HepG2 cells were obtained from the Cell Bank of Rio de Janeiro (BCRJ code 0069 and 0103, respectively) and cultured in complete medium containing DMEM+F10 nutrient mixture (1:1, v/v), supplemented with fetal bovine serum (10%, v/v) and penicillin/streptomycin stabilized solution (10 mL/L). Cell cultures were incubated at 37 °C with atmosphere saturated with 5% of CO2. All experiments were conducted between the 3rd and the 8th passages and three experimental repetitions were performed.
(§2) Doxorubicin (DOX) was dissolved in ultrapure sterile water in a stock solution of 900 μM. All reagents were dissolved prior to use and protected from light. For all experiments, cells were submitted to 24 h treatment with different concentrations of the tested substance and DOX was used as positive control in CHO-K1 cells. Benzo(a)pyrene [B(a)P] at 25 μM was used as positive control in HepG2 cells.
(§3) For the micronucleus test, 10^6 cells were seeded in […] culture flasks containing complete medium. Cell cultures were allowed to grow for 24 h, then treated with different concentrations of the stilbene derivatives. Simultaneously, cytochalasin B (6 μg/mL) was added to each cell culture to inhibit cytokinesis. After 24 h of incubation, cells were harvested with a hypotonic treatment (KCl 0.075 M) and fixed twice with methanol:acetic acid (3:1). Thereafter, the cell suspension was smeared on pre-cleaned microscope slides and air-dried. Staining was performed during 15 min with Giemsa at 5% in Sorensen Buffer (v/v). Microscope slides were washed in tap water and allowed to dry at room temperature overnight. The frequency of micronucleus (MN), frequency of binucleated cells with micronucleus (BCMN) and frequency of nucleoplasmic bridges (NB) were obtained by the analysis of 1000 binucleated cell/culture/treatment as previously described by [Fenech (2000)]. A total of 500 cells/culture/treatment were analyzed to determine the Nuclear Division Index (NDI) by scoring cells with 1, 2, 3 or 4 nuclei and using the formula: NDI= M1+2(M2)+3(M3)+4(M4)/N, where, M1–M4 stand for the number of cells with 1–4 nuclei and N is the total number of viable cells analyzed.

HepG2 cells [3] = test: Cytokinesis-block micronucleus assay (CBMN); type: cell-based; details: for nuclear bridges (NB): HepG2; for mean micronucleus (MN) frequency: 24 h
Description: as §1, §2, §3

[4] = tested on: CHO-K1 and HepG2 cell lines; test: Clonogenic survival assay, statements not split by cell line; details: based on clonogenic survival assay
Description: as §1, §2
The clonogenic assay was performed according to [Franken et al. (2006)]. Briefly, 200 cells/well were plated in 6 well plates containing 3 mL of complete medium. After 4 h of incubation at 37 °C, the cells were treated with different concentrations of the testing stilbenes for 24 h, then each well was washed with PBS 1X and complete medium was added. […] The colonies were counted, and the cell survival fraction was calculated as percent colonies relative to the untreated control.

CHO-K1 cells [5] = test: Clonogenic survival assay; type: cell-based; details: for survival fraction: 24 h treatment
Description: as §1, §2
(§4) The clonogenic assay was performed according to [Franken et al. (2006)]. Briefly, 200 cells/well were plated in 6 well plates containing 3 mL of complete medium. After 4 h of incubation at 37 °C, the cells were treated with different concentrations of the testing stilbenes for 24 h, then each well was washed with PBS 1X and complete medium was added. The cells were allowed to grow for 7–14 days at 37 °C and 5% of CO2, when colonies were visible. The colonies formed were fixed with methanol/acetic acid/water (1:1:8 v/v/v) and stained with Giemsa 5% (v/v) in Sorensen phosphate buffer (pH 6.8). The colonies were counted, and the cell survival fraction was calculated as percent colonies relative to the untreated control.

HepG2 cells [6] = test: Clonogenic survival assay; type: cell-based; details: for survival fraction: 24 h treatment
Description: as §1, §2, §4

tubulin = tested on: tubulin; design: method as in Schneider et al. (2003); details: ref Schneider et al. (2003); cited from earlier work
[7] = Cell viability assay (XTT), 24 h treatment; type: cell-based
Description: as §1, §2
To determine cell viability, 10^4 cells/well were seeded on a 96-well plate. […] The plates were washed twice in phosphate buffer saline (PBS 1X) and incubated for 4 h at 37 °C with DMEM without phenol red and supplemented with the reagents of the Cell Proliferation Kit (XTT) as recommended by the manufacturer. Total absorbance was measured at 492 and 690 nm (reference) using a microplate reader (ASYS, Eugendorf, Salzburg, Austria).

[8] = design: method as in Paul et al. (2010); details: in vivo; ref Paul et al. (2010); cited from earlier work
HT-29 xenografts = tested on: HT-29 xenografts; design: method as in Paul et al. (2010); details: HT-29 xenografts model of colon cancer; ref Paul et al. (2010); cited from earlier work
Caco-2 cells = tested on: Caco-2 cells; design: method as in Schneider et al. (2003); details: ref Schneider et al. (2003); cited from earlier work
[9] = tested on: colonic aberrant crypt foci (ACF); design: method as in Suh et al., 2007; details: ref Suh et al., 2007; cited from earlier work
Colo 205 xenograft = tested on: Colo 205 xenograft; design: method as in Pan et al., 2008; details: Colo 205 xenograft model of colon cancer; ref Pan et al., 2008; cited from earlier work
[10] = Chinese hamster, CHO-K1, 7.8 μM (lowest concentration)
[11] = human, HepG2, 7.8 μM (lowest concentration)

Oc1ccc(/C=C/c2cc(O)cc(O)c2)cc1 [Resveratrol]
prevention of formation of colon and intestinal tumors [1]: 70%

COc1ccc(/C=C\c2cc(OC)cc(OC)c2)cc1 [cis-TMS, (Z)-1,3-dimethoxy-5-(4-methoxystyryl)benzene]
mean micronucleus (MN) frequency (CHO-K1 cells [2]; CHO-K1, 0.125 μM): 2.8 MN/100 cells
mean micronucleus (MN) frequency (CHO-K1 cells [2]; CHO-K1, 0.5 μM): 5.2 MN/100 cells
nuclear bridges (NB) (HepG2 cells [3]): No significant induction
mean micronucleus (MN) frequency (HepG2 cells [3]; HepG2, 0.125 μM): 3.5 MN/100 cells
mean micronucleus (MN) frequency (HepG2 cells [3]; HepG2, 0.5 μM): 6.1 MN/100 cells
fold more cytotoxic than the amino and ester [4]: approximately 250 fold
fold more cytotoxic than trans-TMS [4]: 128 fold
survival fraction (CHO-K1 cells [5]; CHO-K1, 0.078 μM): 45.8%
survival fraction (CHO-K1 cells [5]; CHO-K1, 0.156 μM): 36.8%
survival fraction (CHO-K1 cells [5]; CHO-K1, 0.3125 μM): 13.9%
cells killed (clonogenic assay) (CHO-K1 cells [5]; CHO-K1, all concentrations tested (2.5 μM upwards)): 100%
survival fraction (HepG2 cells [6]; HepG2, 0.078 μM): 41.3%
survival fraction (HepG2 cells [6]; HepG2, 0.156 μM): 54.3%
survival fraction (HepG2 cells [6]; HepG2, 0.3125 μM): 16.9%
survival fraction (HepG2 cells [6]; HepG2, 0.625 μM): 6.2%
cells killed (clonogenic assay) (HepG2 cells [6]; HepG2, at 2.5, 5 and 10 μM): 100%
tubulin polymerization (tubulin): inhibited tubulin polymerization in a dose-dependent manner
viability at 24 h, 7.8 µM [7, 10]: 60.7%
viability at 24 h, 7.8 µM [7, 11]: 49%
bioavailability [8]: low bioavailability
effect on tumor (volume, weight) in vivo (HT-29 xenografts): not active in vivo
cell cycle effect in Caco-2 cells (Caco-2 cells): arrest of the cell cycle progression at the G2/M transition phase

COc1cc(/C=C/c2ccc(O)cc2)cc(OC)c1 [pterostilbene]
formation of azoxymethane-induced colonic aberrant crypt foci (ACF) [9]: reduced the formation

COc1ccc(/C=C/c2cc(OC)cc(OC)c2)cc1 [trans-TMS, (E)-1,3-dimethoxy-5-(4-methoxystyryl)benzene]
micronucleus (MN) frequency, result in words (CHO-K1 cells [2]; CHO-K1, all concentrations, compared to NC): no significant MN frequency
nuclear bridges (NB) (HepG2 cells [3]): No significant induction
micronucleus (MN) frequency, result in words (HepG2 cells [3]; HepG2, all tested concentrations): significantly increased
tumor growth (Colo 205 xenograft): significantly reduced tumor growth
concentration from which colony formation is significantly reduced (CHO-K1 cells [5]; CHO-K1 (stated for both cell lines)): 5 µM
frequency of survival fraction, result in words (CHO-K1 cells [5]; CHO-K1, 2.5-20 μM): significant concentration-dependent reduction
concentration from which colony formation is significantly reduced (HepG2 cells [6]; HepG2 (stated for both cell lines)): 5 µM
frequency of survival fraction, result in words (HepG2 cells [6]; HepG2, 2.5-20 μM): significant concentration-dependent reduction
viability at 24 h, 7.8 µM [7, 10]: 62.5%
viability at 24 h, 7.8 µM [7, 11]: 59.1%
serum levels [8]: much higher serum levels than the cis-TMS
effect on tumor (volume, weight) in vivo (HT-29 xenografts): significantly reduced tumor volume; also recorded: significantly decreased tumor volume and weight
fold less effective in inhibiting the growth of Caco-2 cells than the cis isomer (Caco-2 cells): 100 fold
